Experimental findings from ChEMBL document CHEMBL1201862, “PubChem BioAssay data set” (2004) are described below.

The source made the active and inactive calls.

For test [1], the target named is DNA dC->dU-editing enzyme APOBEC-3G (Homo sapiens, UniProt Q9HC16). The test is described as follows: Dose Response confirmation of small molecule APOBEC3G DNA Deaminase Inhibitors via a fluorescence-based single-stranded DNA deaminase assay. [Related pubchem assays (depositor defined):AID493012, AID493028]. It is filed as functional.
Another test relates to Vero. The test is described as follows: cells. The conditions noted are these: Chlorocebus sabaeus. It is filed as functional.
Test [2] addresses T1, Short transient receptor potential channel 4 (Mus musculus, UniProt Q9QUQ5).
T1 sequence (Q9QUQ5 whole entry): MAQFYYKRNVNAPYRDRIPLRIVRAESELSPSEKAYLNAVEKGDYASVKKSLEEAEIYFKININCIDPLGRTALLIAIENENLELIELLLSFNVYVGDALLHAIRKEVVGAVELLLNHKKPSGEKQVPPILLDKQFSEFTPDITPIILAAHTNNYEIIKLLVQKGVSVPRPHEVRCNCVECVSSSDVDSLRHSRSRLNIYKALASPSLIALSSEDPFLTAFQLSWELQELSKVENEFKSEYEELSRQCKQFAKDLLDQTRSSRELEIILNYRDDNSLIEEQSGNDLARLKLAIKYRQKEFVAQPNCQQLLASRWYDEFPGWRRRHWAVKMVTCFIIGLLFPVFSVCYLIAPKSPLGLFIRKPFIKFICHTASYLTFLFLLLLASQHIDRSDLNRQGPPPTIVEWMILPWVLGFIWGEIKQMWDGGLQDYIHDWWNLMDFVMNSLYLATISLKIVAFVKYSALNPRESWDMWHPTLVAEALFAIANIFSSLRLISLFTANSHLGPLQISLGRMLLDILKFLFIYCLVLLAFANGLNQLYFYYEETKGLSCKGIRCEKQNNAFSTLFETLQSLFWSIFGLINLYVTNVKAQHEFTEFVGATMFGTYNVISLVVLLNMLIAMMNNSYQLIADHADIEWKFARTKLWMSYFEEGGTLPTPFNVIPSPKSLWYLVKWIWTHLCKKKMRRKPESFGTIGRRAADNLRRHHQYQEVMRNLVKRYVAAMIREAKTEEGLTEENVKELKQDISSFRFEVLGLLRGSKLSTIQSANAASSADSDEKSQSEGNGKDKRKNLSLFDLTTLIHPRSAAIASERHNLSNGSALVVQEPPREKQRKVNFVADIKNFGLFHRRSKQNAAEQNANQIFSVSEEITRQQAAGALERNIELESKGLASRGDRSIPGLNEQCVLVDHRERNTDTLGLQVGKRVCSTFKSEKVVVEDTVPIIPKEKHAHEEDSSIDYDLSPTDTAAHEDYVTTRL
The test is described as follows: mouse TRPC4 channel activators, dose response, cell-based, HEK293 TRPC4/mu-opioid, Fluo-4 calcium (AID 434937). It is filed as functional.

Test [3] addresses T2, Type-1 angiotensin II receptor (Homo sapiens, UniProt P30556).
T2 sequence (P30556 whole entry): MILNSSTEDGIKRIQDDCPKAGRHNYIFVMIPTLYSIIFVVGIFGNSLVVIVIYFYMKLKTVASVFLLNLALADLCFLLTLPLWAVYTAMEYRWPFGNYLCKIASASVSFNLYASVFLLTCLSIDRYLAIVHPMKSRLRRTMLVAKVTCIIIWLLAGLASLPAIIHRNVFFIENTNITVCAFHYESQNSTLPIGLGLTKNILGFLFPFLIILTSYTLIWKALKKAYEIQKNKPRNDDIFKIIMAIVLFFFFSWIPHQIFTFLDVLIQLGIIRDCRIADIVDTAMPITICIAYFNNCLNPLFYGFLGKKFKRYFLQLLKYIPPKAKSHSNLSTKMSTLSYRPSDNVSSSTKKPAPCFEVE
The test is described as follows: AT1 receptor antagonists, dose response, selectivity assay for APJ receptor antagonist project, cell-based, uHTS hits (AID 463214).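 Further: antagonist potency against angiotensin II stimulated AT1 response.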 In kind it is functional.

In test [4] the target is SWI/SNF-related matrix-associated actin-dependent regulator of chromatin subfamily A member 2 (Homo sapiens, UniProt P51531). The test is described as follows: Luminescence-based cell-based high throughput dose response assay to identify activators of the function of SWI/SNF related, matrix associated, actin dependent regulator of chromatin, subfamily a, member 2 (SMARCA2, BRM). In kind it is functional.

For a further test, the target named is Beta-galactosidase (Escherichia coli, UniProt Q8VNN2). The test is described as follows: PubChem AID 485352. In kind it is functional.
The nature of test [5]: Counterscreen for activators of the function of SWI/SNF related, matrix associated, actin dependent regulator of chromatin, subfamily a, member 2 (SMARCA2, BRM): Luminescence-based cell-based high throughput dose response assay to identify non-selective compounds using the VP16 reporter assay. In kind it is functional. On the technique in general: Counterscreens check selectivity or assay interference.

A short description of test [6]: Luminescence Cell-Based Dose Retest to Confirm Inhibitors of Cancer Stem Cells. [Related pubchem assays (depositor defined):AID2717, AID2721]. In kind it is functional. To be noted: Homo sapiens.
Test [7] can be described thus: microbe, parasite or virus in culture. In kind it is functional. To be noted: Mycobacterium tuberculosis.
In test [8] the target is T3, Polyadenylate-binding protein 1 (Homo sapiens, UniProt P11940). The test is described as follows: PABP1 MLLE–PAM2 binding inhibitor potency, dose response, biochemical, fluorescence polarization, FITC-PAM2 peptide (AID 602259). To be noted: read-out: IC50_Mean. It is filed as functional.
The target in test [9] is T3, Polyadenylate-binding protein 1. The test is described as follows: PABP1 MLLE–PAM2 interaction inhibitors, dose response, miRNA deadenylation inhibitor project, biochemical, fluorescence polarization, Cy5-PAM2 peptide, secondary (AID 602260). It is filed as functional. To be noted: read-out: IC50_Mean. On the technique in general: Polarisation of emitted light reports the rotation of a fluorescent probe.

Test [10] addresses Glyceraldehyde-3-phosphate dehydrogenase (Homo sapiens, UniProt P04406).
Test [11] deals with T4, Alkaline phosphatase, tissue-nonspecific isozyme (Homo sapiens, UniProt P05186).
T4 sequence (P05186 whole entry): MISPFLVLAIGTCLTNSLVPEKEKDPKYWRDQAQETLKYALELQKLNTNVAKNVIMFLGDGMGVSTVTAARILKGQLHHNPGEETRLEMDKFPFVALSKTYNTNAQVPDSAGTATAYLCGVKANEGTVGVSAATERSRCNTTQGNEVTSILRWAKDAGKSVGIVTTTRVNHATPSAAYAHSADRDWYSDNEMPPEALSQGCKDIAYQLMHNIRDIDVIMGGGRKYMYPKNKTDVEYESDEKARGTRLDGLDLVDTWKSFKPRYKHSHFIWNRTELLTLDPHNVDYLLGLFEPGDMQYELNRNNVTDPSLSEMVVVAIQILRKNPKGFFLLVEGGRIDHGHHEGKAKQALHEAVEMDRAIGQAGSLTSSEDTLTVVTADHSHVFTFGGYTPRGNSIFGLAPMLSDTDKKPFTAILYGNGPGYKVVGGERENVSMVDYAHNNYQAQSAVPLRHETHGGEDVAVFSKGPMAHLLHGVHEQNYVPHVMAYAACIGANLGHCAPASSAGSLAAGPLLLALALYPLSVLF
As to the kind of experiment: human TNAP enzyme inhibitors, SAR follow-up, biochemical, luminescent, dose response (AID 1056).

The target of test [12] is Alkaline phosphatase, placental type (Homo sapiens, UniProt P05187). As to the kind of experiment: PLAP enzyme inhibitors, confirmation, biochemical, luminescence (AID 1512). In kind it is functional.
Test [13] in a line: cytotoxicity toward NIH3T3 fibroblasts, dose response, counter-screen, cell-based, ATP luminescence, mouse fibroblasts (AID 2010).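 Further: cells exposed to compound for about 90 hours before reading.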 In kind it is functional.
The nature of test [14]: inhibitors of intracellular T. cruzi replication, confirmation, NIH3T3 host cells, beta-gal luminescence (AID 2044).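 Further: intracellular parasites grown in NIH/3T3 mouse fibroblasts as host cells; luminescent beta-galactosidase reporter signal from transgenic T. cruzi replicating inside host cells; inhibitors lower the luminescence signal.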 It is filed as functional, cell-based.
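Wherever AC50 is given: cells exposed to compound for roughly 70 hours or longer before luminescence read.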

Glyceraldehyde-3-phosphate dehydrogenase, sequence (P04406 whole entry): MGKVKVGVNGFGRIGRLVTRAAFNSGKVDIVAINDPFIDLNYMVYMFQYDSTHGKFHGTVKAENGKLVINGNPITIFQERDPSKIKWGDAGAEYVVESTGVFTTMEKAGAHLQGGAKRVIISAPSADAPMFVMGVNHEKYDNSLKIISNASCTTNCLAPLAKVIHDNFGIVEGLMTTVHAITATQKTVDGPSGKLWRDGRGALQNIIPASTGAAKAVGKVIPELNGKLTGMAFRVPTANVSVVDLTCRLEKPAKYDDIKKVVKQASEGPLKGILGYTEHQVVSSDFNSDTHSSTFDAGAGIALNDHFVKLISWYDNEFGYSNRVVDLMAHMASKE
Alkaline phosphatase, placental type, sequence (P05187 whole entry): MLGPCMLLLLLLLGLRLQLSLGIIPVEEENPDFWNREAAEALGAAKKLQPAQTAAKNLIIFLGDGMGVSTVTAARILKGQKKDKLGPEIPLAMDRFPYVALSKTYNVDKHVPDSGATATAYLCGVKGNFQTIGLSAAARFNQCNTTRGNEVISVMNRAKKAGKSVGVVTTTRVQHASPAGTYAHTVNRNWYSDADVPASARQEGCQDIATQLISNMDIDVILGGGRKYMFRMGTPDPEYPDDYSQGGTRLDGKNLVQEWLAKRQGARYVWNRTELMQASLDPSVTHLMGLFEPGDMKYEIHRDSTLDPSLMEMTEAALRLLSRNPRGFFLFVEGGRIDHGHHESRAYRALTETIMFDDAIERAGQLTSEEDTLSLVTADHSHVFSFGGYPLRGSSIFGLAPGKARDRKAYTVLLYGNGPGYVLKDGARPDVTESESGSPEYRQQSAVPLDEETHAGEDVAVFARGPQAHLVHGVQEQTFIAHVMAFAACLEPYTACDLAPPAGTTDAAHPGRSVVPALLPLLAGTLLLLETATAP
T3 sequence (P11940 whole entry): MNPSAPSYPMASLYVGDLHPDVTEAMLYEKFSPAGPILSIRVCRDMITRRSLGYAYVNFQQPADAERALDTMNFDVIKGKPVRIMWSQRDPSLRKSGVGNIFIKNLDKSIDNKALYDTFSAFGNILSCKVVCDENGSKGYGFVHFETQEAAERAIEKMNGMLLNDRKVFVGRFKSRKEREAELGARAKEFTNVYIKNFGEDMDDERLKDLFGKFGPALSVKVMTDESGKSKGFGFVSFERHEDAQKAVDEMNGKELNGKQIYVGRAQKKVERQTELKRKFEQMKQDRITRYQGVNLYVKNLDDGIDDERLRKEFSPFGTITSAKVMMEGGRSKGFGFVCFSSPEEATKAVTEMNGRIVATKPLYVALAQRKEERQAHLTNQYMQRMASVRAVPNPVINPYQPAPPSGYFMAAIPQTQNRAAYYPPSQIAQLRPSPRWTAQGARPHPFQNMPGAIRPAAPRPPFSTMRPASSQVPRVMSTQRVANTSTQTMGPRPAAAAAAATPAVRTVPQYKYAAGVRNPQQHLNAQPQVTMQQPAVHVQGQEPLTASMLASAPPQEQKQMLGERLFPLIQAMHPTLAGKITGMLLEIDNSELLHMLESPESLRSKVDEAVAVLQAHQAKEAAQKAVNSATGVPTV
Beta-galactosidase, sequence (Q8VNN2 whole entry): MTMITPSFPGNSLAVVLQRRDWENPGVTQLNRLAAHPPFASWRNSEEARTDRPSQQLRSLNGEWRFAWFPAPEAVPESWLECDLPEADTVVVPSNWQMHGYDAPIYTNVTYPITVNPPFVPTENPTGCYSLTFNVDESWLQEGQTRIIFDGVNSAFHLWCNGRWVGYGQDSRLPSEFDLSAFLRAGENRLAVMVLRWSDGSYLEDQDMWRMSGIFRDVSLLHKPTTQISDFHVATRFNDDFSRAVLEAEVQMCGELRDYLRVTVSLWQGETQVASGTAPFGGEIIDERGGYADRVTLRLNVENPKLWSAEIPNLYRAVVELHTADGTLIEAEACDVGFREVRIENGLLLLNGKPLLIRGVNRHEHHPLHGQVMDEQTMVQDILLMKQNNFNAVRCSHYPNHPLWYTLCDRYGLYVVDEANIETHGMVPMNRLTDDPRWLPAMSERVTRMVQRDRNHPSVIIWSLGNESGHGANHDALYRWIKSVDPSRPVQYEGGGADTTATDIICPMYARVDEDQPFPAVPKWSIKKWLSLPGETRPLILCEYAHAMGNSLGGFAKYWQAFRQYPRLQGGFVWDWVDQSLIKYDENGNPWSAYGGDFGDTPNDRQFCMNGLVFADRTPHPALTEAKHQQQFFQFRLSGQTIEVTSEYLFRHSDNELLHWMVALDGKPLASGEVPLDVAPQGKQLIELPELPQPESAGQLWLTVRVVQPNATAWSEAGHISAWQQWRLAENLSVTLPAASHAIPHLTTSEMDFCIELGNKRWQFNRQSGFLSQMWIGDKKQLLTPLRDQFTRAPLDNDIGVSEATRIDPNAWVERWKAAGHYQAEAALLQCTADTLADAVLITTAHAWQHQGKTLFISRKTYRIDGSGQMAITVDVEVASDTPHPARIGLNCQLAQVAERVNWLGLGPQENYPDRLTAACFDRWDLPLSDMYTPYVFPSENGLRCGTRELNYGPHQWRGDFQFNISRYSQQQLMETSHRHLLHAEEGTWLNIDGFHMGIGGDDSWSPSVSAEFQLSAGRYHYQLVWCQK
SWI/SNF-related matrix-associated actin-dependent regulator of chromatin subfamily A member 2, sequence (P51531 whole entry): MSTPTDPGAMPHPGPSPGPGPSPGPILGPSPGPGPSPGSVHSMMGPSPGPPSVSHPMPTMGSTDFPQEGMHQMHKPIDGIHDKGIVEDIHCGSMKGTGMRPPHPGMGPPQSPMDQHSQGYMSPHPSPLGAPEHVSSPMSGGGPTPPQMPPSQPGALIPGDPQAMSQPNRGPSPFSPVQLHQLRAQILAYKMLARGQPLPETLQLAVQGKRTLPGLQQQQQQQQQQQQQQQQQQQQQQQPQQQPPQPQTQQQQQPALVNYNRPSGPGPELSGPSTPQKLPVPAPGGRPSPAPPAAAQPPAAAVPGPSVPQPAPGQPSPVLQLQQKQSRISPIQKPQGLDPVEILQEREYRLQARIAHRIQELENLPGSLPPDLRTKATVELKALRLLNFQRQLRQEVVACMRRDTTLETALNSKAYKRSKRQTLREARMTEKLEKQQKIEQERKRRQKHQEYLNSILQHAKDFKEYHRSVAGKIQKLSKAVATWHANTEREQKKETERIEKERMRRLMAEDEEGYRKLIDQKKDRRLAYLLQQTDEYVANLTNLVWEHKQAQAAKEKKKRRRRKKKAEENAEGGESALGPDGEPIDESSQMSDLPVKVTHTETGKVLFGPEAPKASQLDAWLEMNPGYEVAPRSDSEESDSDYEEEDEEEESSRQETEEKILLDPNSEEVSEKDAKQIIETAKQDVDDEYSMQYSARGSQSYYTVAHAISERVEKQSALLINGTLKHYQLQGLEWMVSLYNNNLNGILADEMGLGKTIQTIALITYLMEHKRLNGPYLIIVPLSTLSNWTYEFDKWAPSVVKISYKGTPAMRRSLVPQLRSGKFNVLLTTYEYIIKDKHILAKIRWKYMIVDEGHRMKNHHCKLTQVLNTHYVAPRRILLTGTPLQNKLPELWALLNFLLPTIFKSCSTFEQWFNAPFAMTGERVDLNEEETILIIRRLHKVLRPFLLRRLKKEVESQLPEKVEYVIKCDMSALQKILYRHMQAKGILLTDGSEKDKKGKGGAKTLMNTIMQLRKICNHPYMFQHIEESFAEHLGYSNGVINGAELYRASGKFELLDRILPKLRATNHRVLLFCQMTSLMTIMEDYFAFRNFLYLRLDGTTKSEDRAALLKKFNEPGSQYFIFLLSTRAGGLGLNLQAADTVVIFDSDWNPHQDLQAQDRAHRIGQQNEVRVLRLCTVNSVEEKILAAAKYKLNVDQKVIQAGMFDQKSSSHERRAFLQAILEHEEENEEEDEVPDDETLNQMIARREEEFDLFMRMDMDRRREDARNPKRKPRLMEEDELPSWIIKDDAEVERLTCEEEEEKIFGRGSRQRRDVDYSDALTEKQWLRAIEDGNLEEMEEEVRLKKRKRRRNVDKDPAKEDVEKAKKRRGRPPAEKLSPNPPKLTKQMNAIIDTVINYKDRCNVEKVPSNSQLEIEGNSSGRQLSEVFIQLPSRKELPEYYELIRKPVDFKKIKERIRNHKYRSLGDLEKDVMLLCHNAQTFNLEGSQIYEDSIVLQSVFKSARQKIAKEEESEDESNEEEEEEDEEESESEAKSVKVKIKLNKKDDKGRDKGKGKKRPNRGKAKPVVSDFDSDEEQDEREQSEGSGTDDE
DNA dC->dU-editing enzyme APOBEC-3G, sequence (Q9HC16 whole entry): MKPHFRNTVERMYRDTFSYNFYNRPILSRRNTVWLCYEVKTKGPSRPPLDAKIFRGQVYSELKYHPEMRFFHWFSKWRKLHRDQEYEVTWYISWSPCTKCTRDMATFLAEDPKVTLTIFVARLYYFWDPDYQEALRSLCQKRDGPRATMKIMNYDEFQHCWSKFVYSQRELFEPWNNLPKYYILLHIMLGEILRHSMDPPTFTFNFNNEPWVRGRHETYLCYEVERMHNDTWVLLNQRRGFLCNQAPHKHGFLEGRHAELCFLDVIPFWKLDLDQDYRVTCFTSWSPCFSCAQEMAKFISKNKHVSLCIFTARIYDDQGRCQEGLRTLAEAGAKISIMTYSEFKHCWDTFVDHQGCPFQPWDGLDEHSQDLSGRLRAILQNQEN

In general, EC50 refers to the concentration that produces a half-maximal response. With `Cc1ccc(C(=O)NNC(=S)NC(=O)COc2ccccc2)cc1`, the IC50 in test [1] is 36.3 µM (active). Moreover, the CC50 with Vero is > 25 µM (active). Moreover, in test [2], the EC50 is 1.5 µM (active).
With `O=C(CNc1cccc(Cl)c1)c1ccc(Br)cc1`, the IC50 in test [3] is 15 µM (active). Besides, the EC50 in test [4] was > 91.2 µM (inactive); at Beta-galactosidase, > 40 µM (inactive); in test [5], > 91.2 µM (inactive).
As a reminder, the AC50 is the concentration giving half of the maximal activity seen. In the case of `Cc1csc(N=C(S)Nc2cccc(Cl)c2)n1`, the IC50 in [3] is > 40 µM (not active); in test [8] it was > 66 µM (inactive); in test [9], > 66 µM (inactive). In addition, the AC50 in test [6] is 7.09 µM (active). Also, at Beta-galactosidase, the EC50 is > 40 µM (inactive). Besides, the CC50 in [7] was 33.1 µM (active).
Take `O=C(c1cc(-c2cc(F)c(Cl)cc2Cl)n[nH]1)N1CCCCCC1`: the values for the IC50 in [10], in [11] and in test [12] were > 100 µM (not active), > 100 µM (inactive) and > 100 µM (inactive), respectively.
Turning to `Cc1cc(C)cc(NC(=S)N2CCN(c3ncc(C(F)(F)F)cc3Cl)CC2)c1`, the EC50 in [2] was 2.66 µM (active).
Consider `O=C(CSc1nnc(-c2ccccc2Cl)[nH]1)c1ccc(O)c(O)c1`, for which the IC50 in test [10] is > 100 µM (not active); in [11], 1.36 µM (active); in test [12], 8.15 µM (active).
The corresponding values for `CC1(C)CC(=O)c2c(-c3cccc(Br)c3)n[nH]c2C1` are > 100 µM (not active), > 100 µM (inactive) and > 100 µM (inactive).
`CCN1CCN(c2ccc(S(=O)(=O)N3CCCCC3)cc2NC(=O)COc2ccccc2)CC1`: the concentration for a half-maximal effect (EC50) is > 60 µM (not active) in [13], 1.01 µM (active) in test [14] and 6.68 µM (active) in test [2].
